Data published in PubChem BioAssay (NCI).
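Interpolation was linear, between the two tested concentrations surrounding the appropriate level; five concentrations were tested over 48 hours in 96-well plates. The concentration for 50% growth inhibition is given as GI50. TGI: total growth inhibition.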

Legend:
Assay in all cases: NCI tumour cell line growth inhibition, 48 h
ACHN renal = test system: ACHN renal
KM12 colon = test system: KM12 colon
UO-31 renal = test system: UO-31 renal
HCT-15 colon = test system: HCT-15 colon
NCI-H522 lung = test system: NCI-H522 lung
OVCAR-5 ovarian = test system: OVCAR-5 ovarian
A549 NSCLC = test system: A549 NSCLC
HCT-116 colon = test system: HCT-116 colon
HT29 colon = test system: HT29 colon
SK-MEL-5 melanoma = test system: SK-MEL-5 melanoma

| SMILES | TGI (ACHN renal) [µM] | TGI (KM12 colon) [µM] | TGI (UO-31 renal) [µM] | TGI (HCT-15 colon) [µM] | TGI (NCI-H522 lung) [µM] | TGI (OVCAR-5 ovarian) [µM] | TGI (A549 NSCLC) [µM] | TGI (HCT-116 colon) [µM] | TGI (HT29 colon) [µM] | TGI (SK-MEL-5 melanoma) [µM] | GI50 (ACHN renal) [µM] | GI50 (KM12 colon) [µM] | GI50 (UO-31 renal) [µM] | GI50 (HCT-15 colon) [µM] | GI50 (OVCAR-5 ovarian) [µM] | GI50 (HCT-116 colon) [µM] | GI50 (HT29 colon) [µM] | GI50 (SK-MEL-5 melanoma) [µM] | GI50 (NCI-H522 lung) [µM] | GI50 (A549 NSCLC) [µM] |
| --- | --- | --- | --- | --- | --- | --- | --- | --- | --- | --- | --- | --- | --- | --- | --- | --- | --- | --- | --- | --- |
| CC1S(=O)(=O)OCCOS1(=O)=O | > 100 | > 100 | > 100 | > 100 | > 100 | > 100 | > 100 | > 100 | > 100 | > 100 | – | – | – | – | – | – | – | – | – | – |
| Cc1cc2c3ccccc3n(C)c2c2c1C(=O)C=CC2=O | 41.7 | 33.6 | 46.4 | 29.2 | 31.8 | 35.4 | > 77.8 | 39.2 | 20.5 | 51.6 | – | – | – | – | – | – | – | – | – | – |
| Fc1ccc2[nH]c3c(NCCCN4CCOCC4)ncnc3c2c1 | > 100 | > 100 | > 100 | > 100 | – | > 100 | – | > 100 | > 100 | 73.1 | 47.5 | 48.8 | 33 | 32.1 | 50.5 | 33.7 | 29 | 21.3 | – | – |
| NNC(=O)CCC(=O)NC1C2CC3CC(C2)CC1C3 (stereo not drawn) | > 100 | > 100 | > 100 | > 100 | > 100 | > 100 | > 100 | > 100 | > 100 | > 100 | – | – | – | – | – | – | – | – | – | – |
| CC[C@H](CC#N)OC(=O)N[C@@H](C)c1cccc(NC(=O)Nc2ccc(-c3cnco3)c(OC)c2)c1 | 45.1 | 18.1 | 10.3 | > 51.4 | 15.1 | > 84.5 | 20.9 | > 45.8 | 21.7 | 16.4 | 0.0872 | 0.0715 | 0.446 | 0.119 | 0.623 | 0.026 | < 0.0199 | 0.18 | 0.0731 | 0.0336 |
| COc1ccc(NC(=O)c2cc(OC)c(OC)c(OC)c2)cc1 | > 100 | > 100 | > 100 | > 100 | > 87.4 | > 100 | > 100 | > 100 | > 100 | > 80.6 | – | – | – | – | – | – | – | – | – | – |
| CC(=O)OCC1OC(n2ccc(=O)[nH]c2=O)C(OC(C)=O)C1OC(C)=O (stereo not drawn) | > 100 | > 100 | > 100 | > 100 | > 100 | > 100 | > 100 | > 100 | > 100 | > 100 | > 100 | > 100 | > 100 | > 100 | > 100 | > 100 | > 100 | > 100 | > 100 | > 100 |
| Clc1nc(Cl)c2c(ncn2C/C=C\Cn2cnc3c(Cl)nc(Cl)nc32)n1 | 3.33 | 3.41 | 4.35 | 3.2 | 2.1 | 3.74 | 5.99 | – | 2.73 | 2.79 | 1.83 | 1.82 | 2.08 | 1.5 | 1.96 | – | 1.4 | 1.31 | 0.697 | 2.38 |
| CO/N=C(\C)c1ccc(Nc2cc(-c3ccccc3)nc3c(O)cccc23)cc1 | 34 | – | 42.5 | 32.5 | 62.1 | 33.4 | 28.9 | 52.7 | 49.5 | 91.4 | 17.8 | – | 19.6 | 16.2 | 18.7 | 22.2 | 21.9 | 23.9 | 20.6 | 12.8 |
| CC(C)NC(=O)OCCS(=O)c1c(Cl)c(Cl)nn1C (stereo not drawn) | > 100 | > 100 | > 100 | 43.8 | 41.1 | > 100 | > 100 | > 100 | > 100 | > 100 | – | – | – | – | – | – | – | – | – | – |
| CCCCCCCCCCCCCC(=O)CBr | 30.1 | 16.9 | 24 | 28.3 | 3.85 | 49.8 | 50.7 | 17 | 30.5 | 26.3 | – | – | – | – | – | – | – | – | – | – |
| COc1ccc2oc3cccc(NCCN(C)C)c3c(=O)c2c1 | 23.2 | 26.7 | 21.4 | 27.1 | – | 24.9 | 28.2 | 19.8 | 20.3 | 30.9 | – | – | – | – | – | – | – | – | – | – |
| Oc1ccc(CCCCCCc2ccc(O)cc2)cc1 | 12 | 19.8 | 15 | 26.6 | 24.2 | 31.4 | 23 | 22.5 | 34.5 | 17.1 | 1.55 | 6.54 | 2.36 | 12.3 | 16.9 | 9.68 | 17 | 5.27 | 5.98 | 6.62 |
| CCCCCCCCCCCC[n+]1ccc(CCCCCCCCC)cc1 | – | – | 2.59 | – | 2.19 | – | – | – | – | – | – | – | 1.27 | – | – | – | – | – | 0.695 | – |
| Nc1cc(N)c(N)cc1N | 3.72 | 10.7 | 4.6 | 4.68 | 2.9 | 4.99 | 4.51 | 4.61 | 4.86 | 2.02 | 1.73 | 2.88 | 1.56 | 2.01 | 2.18 | 2.01 | 2.42 | 0.736 | 1.48 | 2.06 |
| CCC12CCCC(=O)N1C(CO)C(c1ccccc1)O2 (stereo not drawn) | > 100 | > 100 | – | > 100 | – | > 100 | > 100 | > 100 | > 100 | > 100 | – | – | – | – | – | – | – | – | – | – |
| C=C(C)C(=O)O[C@H]1[C@H]2[C@H](OC(=O)[C@H]2C)[C@H](O)[C@@H](C)[C@@H]2C=CC(=O)[C@]21C | 12.7 | 7.38 | 15.4 | 6.38 | 2.68 | 54 | 12.5 | 4.6 | 10.7 | 20.2 | – | – | – | – | – | – | – | – | – | – |
